Patent US20210009564A1, “CALPAIN MODULATORS AND THERAPEUTIC USES THEREOF” (BLADE THERAPERTICS, INC., priority 2018, published 2021)

Assays:
[1] = target: T1, Human Calpain 9/NS1 (Homo sapiens, UniProt O14815); assay: Calpain inhibition, continuous fluorescence (FRET substrate) assay, calpain 9; type: biochemical; details: SensoLyte 520 FRET substrate, 25C
T1 sequence (O14815 1-690): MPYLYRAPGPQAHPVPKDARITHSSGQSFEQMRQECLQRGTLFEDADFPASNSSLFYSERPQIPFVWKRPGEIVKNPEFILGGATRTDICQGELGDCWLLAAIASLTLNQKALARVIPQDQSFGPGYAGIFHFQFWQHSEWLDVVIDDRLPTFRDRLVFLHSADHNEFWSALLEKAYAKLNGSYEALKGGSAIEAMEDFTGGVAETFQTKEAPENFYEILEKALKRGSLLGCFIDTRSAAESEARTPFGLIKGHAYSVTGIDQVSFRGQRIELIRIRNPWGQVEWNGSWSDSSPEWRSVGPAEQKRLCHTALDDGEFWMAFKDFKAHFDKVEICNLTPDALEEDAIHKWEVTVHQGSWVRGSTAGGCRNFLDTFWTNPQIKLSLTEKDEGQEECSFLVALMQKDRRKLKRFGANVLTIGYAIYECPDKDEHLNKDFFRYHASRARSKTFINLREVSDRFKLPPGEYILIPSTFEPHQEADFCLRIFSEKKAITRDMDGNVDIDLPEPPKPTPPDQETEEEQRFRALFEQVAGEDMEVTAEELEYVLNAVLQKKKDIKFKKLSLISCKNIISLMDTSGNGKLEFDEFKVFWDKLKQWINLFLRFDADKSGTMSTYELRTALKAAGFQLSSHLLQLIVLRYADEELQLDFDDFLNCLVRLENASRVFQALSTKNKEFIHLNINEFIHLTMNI
T1 sequence (P04632 1-268 partner): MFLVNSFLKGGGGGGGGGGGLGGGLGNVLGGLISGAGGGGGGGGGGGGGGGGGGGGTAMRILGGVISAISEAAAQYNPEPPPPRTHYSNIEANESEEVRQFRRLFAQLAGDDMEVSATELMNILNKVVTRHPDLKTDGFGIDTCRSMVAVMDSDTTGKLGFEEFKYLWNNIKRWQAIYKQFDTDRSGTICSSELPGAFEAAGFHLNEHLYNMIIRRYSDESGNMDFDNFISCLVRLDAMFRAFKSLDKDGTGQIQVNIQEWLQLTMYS
In short: (§1)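 Calpains preincubated with serially diluted inhibitors at 25 °C in 50 mM Tris pH 7.5, 100 mM NaCl, 1 mM DTT; CaCl2 plus 5-FAM/QXL 520 FRET substrate started the reaction. Fluorescence (490/520 nm) read 10 min; rates from 1-5 min slopes, IC50 from 4-parameter logistic fit.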

[2] = test system: Calpain activity in SH-SY5Y cells; assay: SH-SY5Y spectrin breakdown product (SBDP-150) western blot assay; type: cell-based; details: Homo sapiens; SH-SY5Y cells, 25 uM A23187, SBDP-150 western blot; read-out: SH-SY5Y Spectrin IC50
[3] = target: T2, Human Calpain 2/NS1 (Homo sapiens, UniProt P17655); assay: Calpain inhibition, continuous fluorescence (FRET substrate) assay, calpain 2; type: biochemical; details: SensoLyte 520 FRET substrate, 25C
T2 sequence (P17655 1-700): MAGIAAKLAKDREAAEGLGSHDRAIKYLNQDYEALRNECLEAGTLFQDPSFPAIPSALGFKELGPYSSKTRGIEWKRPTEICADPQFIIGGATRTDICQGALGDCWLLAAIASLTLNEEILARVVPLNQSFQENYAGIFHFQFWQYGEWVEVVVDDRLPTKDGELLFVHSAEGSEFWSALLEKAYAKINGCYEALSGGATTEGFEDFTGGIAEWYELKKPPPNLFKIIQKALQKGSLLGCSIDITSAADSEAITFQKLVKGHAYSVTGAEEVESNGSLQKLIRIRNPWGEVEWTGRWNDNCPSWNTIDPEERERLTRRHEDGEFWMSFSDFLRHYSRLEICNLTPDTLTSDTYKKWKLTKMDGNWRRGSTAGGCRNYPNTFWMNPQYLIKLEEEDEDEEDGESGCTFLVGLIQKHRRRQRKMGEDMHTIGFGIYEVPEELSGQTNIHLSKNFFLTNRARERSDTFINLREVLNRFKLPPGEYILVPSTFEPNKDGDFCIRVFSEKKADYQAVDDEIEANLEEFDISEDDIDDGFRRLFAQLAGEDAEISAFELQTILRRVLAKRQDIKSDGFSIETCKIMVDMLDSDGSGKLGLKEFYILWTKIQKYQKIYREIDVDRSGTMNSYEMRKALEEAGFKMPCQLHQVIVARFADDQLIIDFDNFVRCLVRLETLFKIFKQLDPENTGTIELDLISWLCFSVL
T2 sequence (P04632 1-268 partner): T1 sequence (P04632 1-268 partner)
In short: as §1

[4] = test system: Calpain activity in SH-SY5Y cells; assay: SH-SY5Y Suc-LLVY-AMC fluorescence assay; type: cell-based; details: Homo sapiens; SH-SY5Y cells, 100 uM Suc-LLVY-AMC; read-out: SH-SY5Y + AMC IC50
[5] = target: T3, Human Calpain 1/NS1 (Homo sapiens, UniProt P07384); assay: Calpain inhibition, continuous fluorescence (FRET substrate) assay, calpain 1; type: biochemical; details: SensoLyte 520 FRET substrate, 25C
T3 sequence (P07384 1-714): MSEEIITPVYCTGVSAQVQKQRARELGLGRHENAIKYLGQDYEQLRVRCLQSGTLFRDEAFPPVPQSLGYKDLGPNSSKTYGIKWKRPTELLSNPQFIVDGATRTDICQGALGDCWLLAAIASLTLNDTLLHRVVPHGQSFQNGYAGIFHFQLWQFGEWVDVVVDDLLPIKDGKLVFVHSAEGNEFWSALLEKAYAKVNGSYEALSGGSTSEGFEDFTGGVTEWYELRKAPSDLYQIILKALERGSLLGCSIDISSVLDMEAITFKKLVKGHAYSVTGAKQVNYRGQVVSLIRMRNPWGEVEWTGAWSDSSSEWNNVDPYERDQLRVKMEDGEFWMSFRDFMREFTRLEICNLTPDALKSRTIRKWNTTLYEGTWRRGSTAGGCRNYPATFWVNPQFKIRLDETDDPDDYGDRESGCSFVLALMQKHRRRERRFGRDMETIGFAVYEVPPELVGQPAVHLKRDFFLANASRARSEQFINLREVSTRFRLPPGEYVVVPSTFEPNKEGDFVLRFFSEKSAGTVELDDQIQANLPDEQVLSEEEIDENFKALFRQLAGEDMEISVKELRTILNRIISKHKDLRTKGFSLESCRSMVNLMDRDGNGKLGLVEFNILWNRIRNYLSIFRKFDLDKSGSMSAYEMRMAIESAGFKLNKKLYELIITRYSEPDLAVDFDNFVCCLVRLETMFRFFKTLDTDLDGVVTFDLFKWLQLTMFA
T3 sequence (P04632 1-268 partner): T1 sequence (P04632 1-268 partner)
In short: as §1

Cc1nc(-c2ccccc2F)c(C(=O)NC(Cc2ccc(Cl)cc2)C(=O)C(N)=O)o1 (stereo not drawn) [Compound 96, N-(4-AMINO-1-(4-CHLOROPHENYL)-3,4-DIOXOBUTAN-2-YL)-4-(2-FLUOROPHENYL)-2-METHYLOXAZOLE-5-CARBOXAMIDE]
IC50 [1]: < 3 µM | IC50 [2]: < 10 µM | IC50 [3]: < 3 µM | IC50 [4]: < 10 µM | IC50 [5]: < 3 µM

Cn1cc(C(=O)NC(Cc2ccc(Cl)cc2)C(=O)C(N)=O)c(-c2ccccc2F)n1 (stereo not drawn) [Compound 97, N-(4-AMINO-1-(4-CHLOROPHENYL)-3,4-DIOXOBUTAN-2-YL)-3-(2-FLUOROPHENYL)-1-METHYL-1H-PYRAZOLE-4-CARBOXAMIDE]
IC50 [1]: < 3 µM | IC50 [2]: < 10 µM | IC50 [3]: < 3 µM | IC50 [4]: < 10 µM | IC50 [5]: < 3 µM

Cc1nc(-c2cc(Cl)oc2C)c(C(=O)NC(Cc2ccccc2)C(=O)C(N)=O)o1 (stereo not drawn) [Compound 98, N-(4-AMINO-3,4-DIOXO-1-PHENYLBUTAN-2-YL)-4-(5-CHLORO-2-METHYLFURAN-3-YL)-2-METHYLOXAZOLE-5-CARBOXAMIDE]
IC50 [1]: < 3 µM | IC50 [2]: 10 to 25 µM | IC50 [3]: < 3 µM | IC50 [4]: < 10 µM | IC50 [5]: < 3 µM

Cn1cc(C(=O)NC(Cc2ccccc2)C(=O)C(N)=O)c(-c2cccc3cn(C)nc23)n1 (stereo not drawn) [Compound 99, N-(4-AMINO-3,4-DIOXO-1-PHENYLBUTAN-2-YL)-1-METHYL-3-(2-METHYL-2H-INDAZOL-7-YL)-1H-PYRAZOLE-4-CARBOXAMIDE]
IC50 [1]: < 3 µM | IC50 [2]: > 25 µM | IC50 [3]: < 3 µM | IC50 [4]: > 25 µM | IC50 [5]: < 3 µM

CC(C)n1ncc2c(-c3nn(C)cc3C(=O)NC(Cc3ccccc3)C(=O)C(N)=O)cccc21 (stereo not drawn) [Compound 100, N-(4-AMINO-3,4-DIOXO-1-PHENYLBUTAN-2-YL)-3-(1-ISOPROPYL-1H-INDAZOL-4-YL)-1-METHYL-1H-PYRAZOLE-4-CARBOXAMIDE]
IC50 [1]: < 3 µM | IC50 [2]: 10 to 25 µM | IC50 [3]: < 3 µM | IC50 [4]: 10 to 25 µM | IC50 [5]: < 3 µM

Cn1cc(C(=O)NC(Cc2ccccc2)C(=O)C(N)=O)c(-c2cccc3ccsc23)n1 (stereo not drawn) [Compound 101, N-(4-AMINO-3,4-DIOXO-1-PHENYLBUTAN-2-YL)-3-(BENZO[b]THIOPHEN-7-YL)-1-METHYL-1H-PYRAZOLE-4-CARBOXAMIDE]
IC50 [1]: < 3 µM | IC50 [2]: < 10 µM | IC50 [3]: < 3 µM | IC50 [4]: 10 to 25 µM | IC50 [5]: < 3 µM

Cn1cc(C(=O)NC(Cc2ccccc2)C(=O)C(N)=O)c(-c2cccc3sccc23)n1 (stereo not drawn) [Compound 102, N-(4-AMINO-3,4-DIOXO-1-PHENYLBUTAN-2-YL)-3-(BENZO[b]THIOPHEN-4-YL)-1-METHYL-1H-PYRAZOLE-4-CARBOXAMIDE]
IC50 [1]: < 3 µM | IC50 [2]: < 10 µM | IC50 [3]: < 3 µM | IC50 [4]: > 25 µM | IC50 [5]: < 3 µM

CC(C)n1c(=O)[nH]c2c(-c3nn(C)cc3C(=O)NC(Cc3ccccc3)C(=O)C(N)=O)cccc21 (stereo not drawn) [Compound 103, N-(4-AMINO-3,4-DIOXO-1-PHENYLBUTAN-2-YL)-3-(1-ISOPROPYL-2-OXO-2,3-DIHYDRO-1H-BENZO[D]IMIDAZOL-4-YL)-1-METHYL-1H-PYRAZOLE-4-CARBOXAMIDE]
IC50 [1]: < 3 µM | IC50 [2]: < 10 µM | IC50 [3]: < 3 µM | IC50 [4]: 10 to 25 µM | IC50 [5]: < 3 µM

O=C(NC(Cc1ccccc1)C(=O)c1nc[nH]n1)c1nsnc1-c1ccccc1 (stereo not drawn) [Compound 104, N-(1-OXO-3-PHENYL-1-(H-1,2,4-TRIAZOL-3-YL)PROPAN-2-YL)-4-PHENYL-1,2,5-THIADIAZOLE-3-CARBOXAMIDE]
IC50 [1]: > 10 µM | IC50 [2]: > 25 µM | IC50 [3]: > 10 µM | IC50 [4]: > 25 µM | IC50 [5]: > 10 µM
